pIC50, pKi: −log10 of the molar value. Calls of active or inactive are those of the source. The calls are words filed in the database; no cut-off is given here.
Key:
[1] = target: ALK tyrosine kinase receptor (Homo sapiens, UniProt Q9UM73)
[2] = target: Hepatocyte growth factor receptor (Homo sapiens, UniProt P08581)
D(1A) dopamine receptor = D(1A) dopamine receptor (Homo sapiens, UniProt P21728); assay: Antagonist activity at dopamine D1 receptor (unknown origin)
D(1B) dopamine receptor = D(1B) dopamine receptor (Homo sapiens, UniProt P21918); assay: Antagonist activity at dopamine D5 receptor (unknown origin)
[3] = Clearance in mouse at 10 mg/kg, iv; format: ADME, organism-based; design: dose 10 mg/kg, route intravenous; settings: in vivo
[4] = target: Proto-oncogene tyrosine-protein kinase Src (Homo sapiens) (UniProt P12931); assay: Inhibition of purified recombinant c-SRC (unknown origin) at 1 uM after 60 mins by ELISA
[5] = target: Proto-oncogene tyrosine-protein kinase receptor Ret (Homo sapiens) (UniProt P07949); assay: Inhibition of purified recombinant RET (unknown origin) at 1 uM after 60 mins by ELISA
cells [6] = settings: Homo sapiens, KARPAS-299, 72 h
Description: Antiproliferative activity against ALK-dependent human KARPAS299 cells after 72 hrs

[7] = target: Fibroblast growth factor receptor 1 (Homo sapiens) (UniProt P11362); assay: Inhibition of purified recombinant FGFR1 (unknown origin) at 1 uM after 60 mins by ELISA
[8] = target: Macrophage-stimulating protein receptor (Homo sapiens) (UniProt Q04912); assay: Inhibition of purified recombinant RON (unknown origin) at 1 uM after 60 mins by ELISA
[9] = AUC (0 to infinity) in mouse at 20 mg/kg, po; format: ADME, organism-based; design: time infinity, dose 20 mg/kg, route oral; settings: plasma
[10] = Half life in mouse at 10 mg/kg, iv; format: ADME, organism-based; design: dose 10 mg/kg, route intravenous; settings: in vivo
BaF3 [11] = assay: Antitumor activity against mouse BAF3 cells expressing EML4-ALK fusion protein allografted in nude mouse assessed as tumor growth inhibition at 0.3 to 1 mg/kg, po qd for 2 weeks relative to vehicle-treated control; format: functional, organism-based
[12] = Oral bioavailability in mouse at 20 mg/kg; format: ADME, organism-based; settings: in vivo
BaF3 [13] = assay: Antitumor activity against mouse BAF3 cells expressing EML4-ALK fusion protein allografted in nude mouse assessed as tumor growth inhibition at 1 mg/kg, po qd for 2 weeks relative to vehicle-treated control; format: functional; settings: BaF3, 336 h, read-out: TGI
cells [14] = settings: Homo sapiens, EBC-1, 72 h
Description: Antiproliferative activity against cMET-amplified human EBC1 cells after 72 hrs

Chain of ALK tyrosine kinase receptor (Q9UM73 whole entry): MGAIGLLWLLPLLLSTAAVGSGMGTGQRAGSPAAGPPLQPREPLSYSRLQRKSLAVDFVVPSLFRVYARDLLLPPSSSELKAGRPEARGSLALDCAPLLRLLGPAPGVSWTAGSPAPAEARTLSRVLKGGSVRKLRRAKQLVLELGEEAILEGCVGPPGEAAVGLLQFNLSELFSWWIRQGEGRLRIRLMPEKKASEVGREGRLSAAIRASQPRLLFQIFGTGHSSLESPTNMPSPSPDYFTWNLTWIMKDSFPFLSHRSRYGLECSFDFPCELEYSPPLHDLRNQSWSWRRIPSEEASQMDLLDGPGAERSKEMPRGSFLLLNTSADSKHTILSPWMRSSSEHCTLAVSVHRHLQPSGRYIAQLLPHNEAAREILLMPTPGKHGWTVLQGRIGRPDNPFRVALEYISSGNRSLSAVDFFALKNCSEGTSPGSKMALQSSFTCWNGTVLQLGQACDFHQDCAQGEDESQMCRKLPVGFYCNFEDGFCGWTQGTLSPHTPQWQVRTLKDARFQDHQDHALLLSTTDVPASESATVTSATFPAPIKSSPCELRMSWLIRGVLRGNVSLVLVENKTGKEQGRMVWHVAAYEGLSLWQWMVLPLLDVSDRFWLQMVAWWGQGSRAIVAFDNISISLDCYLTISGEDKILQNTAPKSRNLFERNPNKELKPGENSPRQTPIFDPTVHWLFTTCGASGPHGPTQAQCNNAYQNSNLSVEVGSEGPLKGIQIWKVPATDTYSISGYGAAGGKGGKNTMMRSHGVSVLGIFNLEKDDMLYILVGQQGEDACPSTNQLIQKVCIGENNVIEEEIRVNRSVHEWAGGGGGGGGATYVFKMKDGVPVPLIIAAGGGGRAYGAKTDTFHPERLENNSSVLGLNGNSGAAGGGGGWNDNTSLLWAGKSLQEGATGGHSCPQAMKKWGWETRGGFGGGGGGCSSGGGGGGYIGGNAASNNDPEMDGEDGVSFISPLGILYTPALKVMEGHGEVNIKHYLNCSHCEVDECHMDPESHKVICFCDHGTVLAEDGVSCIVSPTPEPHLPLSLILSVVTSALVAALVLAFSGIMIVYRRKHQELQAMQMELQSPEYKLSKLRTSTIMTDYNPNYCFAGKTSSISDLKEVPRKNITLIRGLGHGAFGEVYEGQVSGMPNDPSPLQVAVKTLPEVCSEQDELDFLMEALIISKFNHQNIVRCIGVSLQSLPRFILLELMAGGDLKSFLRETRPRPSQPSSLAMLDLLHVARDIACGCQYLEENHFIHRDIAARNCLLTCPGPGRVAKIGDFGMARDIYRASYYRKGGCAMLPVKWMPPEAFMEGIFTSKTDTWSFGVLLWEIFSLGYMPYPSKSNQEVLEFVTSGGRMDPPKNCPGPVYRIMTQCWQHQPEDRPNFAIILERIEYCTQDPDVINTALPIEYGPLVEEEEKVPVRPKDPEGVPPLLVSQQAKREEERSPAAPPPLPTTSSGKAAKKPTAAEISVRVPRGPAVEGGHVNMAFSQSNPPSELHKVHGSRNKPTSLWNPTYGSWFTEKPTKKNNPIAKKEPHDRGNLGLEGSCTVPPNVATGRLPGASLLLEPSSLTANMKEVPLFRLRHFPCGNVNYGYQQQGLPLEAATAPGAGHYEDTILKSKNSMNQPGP
Chain of Hepatocyte growth factor receptor (P08581 whole entry): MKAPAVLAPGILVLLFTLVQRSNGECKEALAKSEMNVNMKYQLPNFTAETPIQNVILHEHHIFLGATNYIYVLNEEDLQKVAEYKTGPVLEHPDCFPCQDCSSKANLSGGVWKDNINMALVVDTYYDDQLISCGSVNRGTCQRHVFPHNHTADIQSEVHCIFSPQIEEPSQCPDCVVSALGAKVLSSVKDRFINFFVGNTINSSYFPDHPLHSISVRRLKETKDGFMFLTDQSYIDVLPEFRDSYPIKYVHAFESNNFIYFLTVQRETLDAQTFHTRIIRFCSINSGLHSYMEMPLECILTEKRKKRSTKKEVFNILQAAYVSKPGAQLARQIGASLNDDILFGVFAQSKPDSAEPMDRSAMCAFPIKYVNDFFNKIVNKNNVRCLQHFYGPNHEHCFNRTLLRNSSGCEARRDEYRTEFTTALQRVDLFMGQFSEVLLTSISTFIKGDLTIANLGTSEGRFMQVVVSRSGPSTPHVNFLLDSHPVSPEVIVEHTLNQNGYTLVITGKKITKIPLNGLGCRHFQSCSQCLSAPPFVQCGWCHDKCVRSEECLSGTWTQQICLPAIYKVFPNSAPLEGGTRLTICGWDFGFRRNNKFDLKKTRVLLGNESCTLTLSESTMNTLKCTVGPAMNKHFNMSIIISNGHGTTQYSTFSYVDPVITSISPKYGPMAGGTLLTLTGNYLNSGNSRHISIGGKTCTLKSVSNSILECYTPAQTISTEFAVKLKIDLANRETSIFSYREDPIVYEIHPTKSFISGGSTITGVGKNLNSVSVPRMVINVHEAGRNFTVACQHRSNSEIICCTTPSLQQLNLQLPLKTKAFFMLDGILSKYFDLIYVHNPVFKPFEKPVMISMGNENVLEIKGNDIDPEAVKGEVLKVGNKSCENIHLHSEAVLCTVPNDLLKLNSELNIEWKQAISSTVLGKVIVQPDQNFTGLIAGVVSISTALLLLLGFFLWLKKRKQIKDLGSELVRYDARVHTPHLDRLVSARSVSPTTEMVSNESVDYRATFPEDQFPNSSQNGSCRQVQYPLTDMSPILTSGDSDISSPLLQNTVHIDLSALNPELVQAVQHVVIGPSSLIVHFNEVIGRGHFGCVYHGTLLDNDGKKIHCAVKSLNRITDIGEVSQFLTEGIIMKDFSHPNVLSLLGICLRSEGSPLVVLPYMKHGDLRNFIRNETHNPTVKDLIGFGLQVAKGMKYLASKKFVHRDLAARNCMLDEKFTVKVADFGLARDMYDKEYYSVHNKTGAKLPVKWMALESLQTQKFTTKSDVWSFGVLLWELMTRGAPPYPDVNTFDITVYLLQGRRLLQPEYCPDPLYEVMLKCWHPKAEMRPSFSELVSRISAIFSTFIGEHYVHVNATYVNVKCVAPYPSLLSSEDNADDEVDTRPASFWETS
Chain of Proto-oncogene tyrosine-protein kinase receptor Ret (Homo sapiens) (P07949 whole entry): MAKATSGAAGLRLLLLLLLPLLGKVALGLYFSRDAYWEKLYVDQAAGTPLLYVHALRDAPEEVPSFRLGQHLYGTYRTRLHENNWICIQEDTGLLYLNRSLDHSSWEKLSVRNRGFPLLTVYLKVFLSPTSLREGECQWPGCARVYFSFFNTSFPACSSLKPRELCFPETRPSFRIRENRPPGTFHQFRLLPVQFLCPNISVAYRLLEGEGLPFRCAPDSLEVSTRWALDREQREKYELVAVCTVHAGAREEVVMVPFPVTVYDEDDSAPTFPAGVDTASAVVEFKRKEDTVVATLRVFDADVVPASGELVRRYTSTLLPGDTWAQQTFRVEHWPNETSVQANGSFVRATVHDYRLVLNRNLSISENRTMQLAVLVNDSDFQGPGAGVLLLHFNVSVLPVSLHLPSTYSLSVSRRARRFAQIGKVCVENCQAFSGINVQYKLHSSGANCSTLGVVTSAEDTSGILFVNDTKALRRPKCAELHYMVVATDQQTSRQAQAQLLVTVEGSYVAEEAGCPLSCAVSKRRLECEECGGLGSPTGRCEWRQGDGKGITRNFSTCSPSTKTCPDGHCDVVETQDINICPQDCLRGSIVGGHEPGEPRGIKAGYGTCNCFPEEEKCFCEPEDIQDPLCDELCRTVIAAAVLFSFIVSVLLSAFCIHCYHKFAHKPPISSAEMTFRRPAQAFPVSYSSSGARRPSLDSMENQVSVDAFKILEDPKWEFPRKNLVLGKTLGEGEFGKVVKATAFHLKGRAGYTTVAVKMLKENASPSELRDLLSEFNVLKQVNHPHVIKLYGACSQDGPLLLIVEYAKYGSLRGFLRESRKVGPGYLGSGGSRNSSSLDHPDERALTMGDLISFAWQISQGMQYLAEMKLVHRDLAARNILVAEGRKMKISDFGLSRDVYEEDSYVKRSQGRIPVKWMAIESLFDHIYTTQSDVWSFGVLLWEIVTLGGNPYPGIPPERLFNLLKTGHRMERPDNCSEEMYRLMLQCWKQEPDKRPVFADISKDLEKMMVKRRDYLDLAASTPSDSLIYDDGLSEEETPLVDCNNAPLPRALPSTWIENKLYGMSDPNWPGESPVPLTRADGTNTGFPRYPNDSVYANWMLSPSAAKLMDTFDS
Chain of Proto-oncogene tyrosine-protein kinase Src (Homo sapiens) (P12931 2-536 limits assumed): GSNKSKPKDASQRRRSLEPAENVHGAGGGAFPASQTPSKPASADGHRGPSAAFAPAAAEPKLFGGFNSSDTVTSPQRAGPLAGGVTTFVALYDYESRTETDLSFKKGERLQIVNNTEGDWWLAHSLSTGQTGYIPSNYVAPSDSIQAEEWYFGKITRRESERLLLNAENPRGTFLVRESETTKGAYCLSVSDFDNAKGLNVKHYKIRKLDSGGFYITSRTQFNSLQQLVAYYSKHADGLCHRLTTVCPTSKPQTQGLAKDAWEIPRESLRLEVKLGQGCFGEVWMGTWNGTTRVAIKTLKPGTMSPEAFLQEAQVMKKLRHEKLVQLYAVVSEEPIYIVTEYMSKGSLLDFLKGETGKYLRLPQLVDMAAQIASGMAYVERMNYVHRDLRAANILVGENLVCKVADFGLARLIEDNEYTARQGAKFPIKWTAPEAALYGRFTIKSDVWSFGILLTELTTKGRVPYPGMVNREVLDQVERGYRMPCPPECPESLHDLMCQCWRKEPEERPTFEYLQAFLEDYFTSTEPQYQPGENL
Chain of D(1A) dopamine receptor (P21728 whole entry): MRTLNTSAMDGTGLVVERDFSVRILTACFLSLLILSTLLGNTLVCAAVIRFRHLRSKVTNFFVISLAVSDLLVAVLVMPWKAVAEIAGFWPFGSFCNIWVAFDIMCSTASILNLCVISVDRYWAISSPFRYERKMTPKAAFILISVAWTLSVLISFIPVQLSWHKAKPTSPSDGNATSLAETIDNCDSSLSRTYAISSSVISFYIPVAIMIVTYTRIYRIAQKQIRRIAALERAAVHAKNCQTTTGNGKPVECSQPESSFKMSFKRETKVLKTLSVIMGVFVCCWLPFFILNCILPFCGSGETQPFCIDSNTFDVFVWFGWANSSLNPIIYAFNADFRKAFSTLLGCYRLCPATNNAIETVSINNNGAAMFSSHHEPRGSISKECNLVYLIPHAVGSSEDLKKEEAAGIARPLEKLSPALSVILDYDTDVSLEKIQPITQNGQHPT

## CNC(=O)c1ccccc1Nc1nc(Nc2ccc3c(c2)C(C)CN(C)CC3)nc(N2CCOCC2)c1Cl (centres undefined)
[1]
  pIC50: < 6.00
[2]
  pIC50: < 6.00

## CN1CCc2ccccc2Cc2[nH]c3ccccc3c2CC1
D(1A) dopamine receptor
  pKi: > 8.00
D(1B) dopamine receptor
  pKi: > 8.00

## CC1CN(C)CCc2ccc(Nc3ncc(Cl)c(Nc4ccccc4C(=O)N4CCOCC4)n3)cc21 (centres undefined)
[1]
  pIC50: < 6.00
[2]
  pIC50: < 6.00

## CNC(=O)c1ccccc1Nc1nc(Nc2ccc3c(c2)C(c2ccccc2)CN(C)CC3)ncc1Cl (racemic)
[3]
  clearance: 33.3 mL/min/kg
[4]
  inhibition: Active
[5]
  inhibition: Active
Cells [6]
  pIC50: 7.52
[7]
  inhibition: Active
[8]
  inhibition: Active
[9]
  AUC(0-inf): 9070 ng·h/mL
[10]
  half-life: 2.2 h
BaF3 [11]
  TGI: inactive
[12]
  bioavailability: 73%

## CNC(=O)c1ccccc1Nc1nc(Nc2ccc3c(c2)C(C)CN(C)CC3)nc2cccnc12 (centres undefined)
[1]
  pIC50: < 6.00
[2]
  pIC50: < 6.00

## CNC(=O)c1ccccc1Nc1nc(Nc2ccc3c(c2)C(C)CNCC3)ncc1Cl (centres undefined)
[1]
  pIC50: 8.10
[2]
  pIC50: 8.19

## CNC(=O)c1ccccc1Nc1nc(Nc2ccc3c(c2)C(C)CN(C)CC3)ncc1Cl (racemic)
BaF3 [13]
  inhibition in vivo at 1 mg/kg: 60.6%
[3]
  clearance: 33.3 mL/min/kg
[4]
  inhibition: Active
[5]
  inhibition: Active
Cells [6]
  pIC50: 7.85
[7]
  inhibition: Active
[8]
  inhibition: Active
[9]
  AUC(0-inf): 5500 ng·h/mL
Cells [14]
  pIC50: 8.15
[10]
  half-life: 2.2 h
[12]
  bioavailability: 20%

## CNC(=O)c1ccccc1Nc1nc(Nc2ccc3c(c2)C(C)CN(C)CC3)nc(F)c1Cl (centres undefined)
[1]
  pIC50: < 6.00
[2]
  pIC50: < 6.00

## CNC(=O)c1ccccc1Nc1nc(Nc2ccc3c(c2)C(C)CN(C)CC3)nc2sccc12 (centres undefined)
[1]
  pIC50: < 6.00
[2]
  pIC50: < 6.00

## CNC(=O)c1ccccc1Nc1nc(Nc2ccc3c(c2)C(C)CN(C)CC3)nc2ccccc12 (centres undefined)
[1]
  pIC50: < 6.00
[2]
  pIC50: < 6.00

## CNC(=O)c1ccccc1Nc1nc(Nc2ccc3c(c2)C(C)CN(C)CC3)nc(NC)c1Cl (centres undefined)
[1]
  pIC50: < 6.00
[2]
  pIC50: < 6.00
